Experimental data as given in ChEMBL document CHEMBL3525922, “Significance of reductive metabolism in human intestine and quantitative prediction of intestinal first-pass metabolism by cytosolic reductive enzymes” (Drug Metab Dispos, 2013).

Experiments:
[1] = test system: Liver; experiment: Drug level in human liver S9 fraction treated with 10 uM mebendazole after 19.80 to 20.76 mins by HPLC-MS analysis; type: ADME, subcellular
[2] = Drug level in human intestinal S9 fraction treated with 10 uM mebendazole 20.69 mins by HPLC-MS analysis; type: ADME, Intestine; conditions: s9, 0.344833 h
[3] = test system: Liver cytosol; experiment: Drug level in human liver cytosol treated with 10 uM mebendazole after 20.80 mins by HPLC-MS analysis; type: ADME, tissue-based; conditions: 0.346667 h
[4] = Drug level in human intestinal cytosol treated with 10 uM mebendazole after 20.74 mins by HPLC-MS analysis; type: ADME, Intestine; conditions: 0.345667 h
[5] = target: T1, carbonyl reductase (Carbonyl reductase [NADPH] 1) (Homo sapiens, UniProt P16152); experiment: Activity of carbonyl reductase in liver cytosol (unknown origin) assessed as enzyme-mediated drug metabolism; type: ADME, tissue-based
T1 sequence (P16152 whole entry): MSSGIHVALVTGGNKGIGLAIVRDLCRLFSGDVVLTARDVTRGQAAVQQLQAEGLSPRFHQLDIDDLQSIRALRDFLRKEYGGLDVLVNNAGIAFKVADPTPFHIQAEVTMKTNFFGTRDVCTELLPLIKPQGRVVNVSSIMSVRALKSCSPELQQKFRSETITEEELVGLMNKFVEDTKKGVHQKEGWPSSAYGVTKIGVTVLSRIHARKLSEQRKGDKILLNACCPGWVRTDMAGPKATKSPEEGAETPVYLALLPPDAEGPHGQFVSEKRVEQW

[6] = Drug metabolism in human intestinal cytosol at 200 nM after 60 mins in presence of ondansetron; type: ADME, Intestine; conditions: 1 h, 0.2 µM
[7] = Drug metabolism in human intestinal cytosol at 200 nM after 60 mins in presence of flufenamic acid; type: ADME, Intestine; conditions: 1 h, 0.2 µM
[8] = Apparent permeability of the compound at 50 uM at pH 7.4 after 240 mins by PAMPA; type: physicochemical
[9] = target: T1, carbonyl reductase (Carbonyl reductase [NADPH] 1); experiment: Activity of recombinant carbonyl reductase (unknown origin); type: ADME
[10] = Drug metabolism in human intestinal cytosol at 200 nM after 30 mins in presence of ondansetron; type: ADME, Intestine; conditions: 0.5 h, 0.2 µM
[11] = Drug metabolism in human liver S9 fraction assessed as reductive metabolite formation at 10 uM after 20.76 mins by HPLC-MS analysis; type: ADME, subcellular; conditions: s9, 0.346 h
[12] = Metabolic stability in human intestinal S9 fraction assessed as compound remaining at 50 to 1000 nM after 60 mins by HPLC-MS/MS analysis; type: ADME, Intestine; conditions: read-out: Stability
[13] = test system: Liver microsome; experiment: Drug metabolism in human liver microsomes assessed as hydrolyzed metabolite formation at 10 uM after 19.83 mins by HPLC-MS analysis; type: ADME; conditions: 0.3305 h
[14] = Metabolic stability in human intestinal microsomes assessed as compound remaining at 50 to 1000 nM after 60 mins by HPLC-MS/MS analysis; type: ADME, Intestine, Microsome; conditions: read-out: Stability
[15] = Drug metabolism in human liver S9 fraction assessed as hydrolyzed metabolite formation at 10 uM after 19.80 mins by HPLC-MS analysis; type: ADME, subcellular; conditions: s9, 0.33 h
[16] = Intrinsic clearance in human intestinal S9 fraction at 50 to 1000 nM after 60 mins by HPLC-MS/MS analysis; type: ADME, Intestine; conditions: s9, 1 h, 1 µM
[17] = Drug metabolism in human intestinal S9 fraction assessed as reductive metabolite formation at 10 uM after 20.69 mins by HPLC-MS analysis; type: ADME, Intestine; conditions: s9, 0.344833 h
[18] = Metabolic stability in human intestinal cytosol at 200 nM after 30 mins in presence of menadione; type: ADME, Intestine; conditions: 0.5 h, 0.2 µM
[19] = Drug metabolism in human intestinal cytosol assessed as reductive metabolite formation at 10 uM after 20.74 mins by HPLC-MS analysis; type: ADME, Intestine; conditions: 0.345667 h
[20] = test system: Liver microsome; experiment: Unbound intrinsic clearance in human liver microsomes at 50 to 1000 nM after 30 to 60 mins by HPLC-MS/MS analysis; type: ADME; conditions: 1 µM
[21] = Intrinsic clearance in human intestinal microsomes at 50 to 1000 nM after 60 mins by HPLC-MS/MS analysis; type: ADME, Intestine, Microsome; conditions: 1 h, 1 µM
[22] = Drug metabolism in human intestinal cytosol at 200 nM after 30 mins in presence of flufenamic acid; type: ADME, Intestine; conditions: 0.5 h, 0.2 µM
[23] = human, s9, 1 h, 1 µM
[24] = Metabolic stability in human intestinal S9 fraction assessed as compound remaining at 50 to 1000 nM after 60 mins by HPLC-MS/MS analysis in presence of NADH; parameters: dose or concentration left out as unconfirmed
[25] = test system: Liver cytosol; experiment: Drug metabolism in human liver cytosol assessed as reductive metabolite formation at 10 uM after 20.80 mins by HPLC-MS analysis; type: ADME, tissue-based; conditions: 0.346667 h
[26] = Metabolic stability in human intestinal cytosol at 200 nM after 60 mins in presence of menadione; type: ADME, Intestine; conditions: 1 h, 0.2 µM
[27] = test system: Liver; experiment: Unbound intrinsic clearance in human liver S9 fraction at 50 to 1000 nM after 30 to 60 mins by HPLC-MS/MS analysis; type: ADME, subcellular; conditions: s9, 1 µM
[28] = test system: Liver cytosol; experiment: Unbound intrinsic clearance in human liver cytosol at 50 to 1000 nM after 30 to 60 mins by HPLC-MS/MS analysis; type: ADME, tissue-based; conditions: 1 µM
[29] = Unbound intrinsic clearance in human intestinal S9 fraction at 50 to 1000 nM after 30 to 60 mins by HPLC-MS/MS analysis; type: ADME, Intestine; conditions: s9, 1 µM
[30] = Unbound intrinsic clearance in human intestinal cytosol at 50 to 1000 nM after 30 to 60 mins by HPLC-MS/MS analysis; type: ADME, Intestine; conditions: 1 µM
[31] = Unbound intrinsic clearance in human intestinal S9 fraction at 50 to 1000 nM after 30 to 60 mins by HPLC-MS/MS analysis in presence of NADPH; type: ADME, Intestine; conditions: s9, 1 µM
[32] = Unbound intrinsic clearance in human intestinal S9 fraction at 50 to 1000 nM after 30 to 60 mins by HPLC-MS/MS analysis in presence of NADH; type: ADME, Intestine; conditions: s9, 1 µM
[33] = Unbound intrinsic clearance in human intestinal microsomes at 50 to 1000 nM after 30 to 60 mins by HPLC-MS/MS analysis; type: ADME, Intestine, Microsome; conditions: 1 µM

Nc1nc2ccc(C(=O)c3ccccc3)cc2[nH]1
Drug metabolism [1]: metabolite_detected

COC(=O)Nc1nc2ccc(C(O)c3ccccc3)cc2[nH]1 (stereo unspecified)
Drug metabolism [2]: metabolite_detected | Drug metabolism [1]: metabolite_detected | Drug metabolism [3]: metabolite_detected | Drug metabolism [4]: metabolite_detected

O=C(CCCN1CCC(O)(c2ccc(Cl)cc2)CC1)c1ccc(F)cc1 [HALOPERIDOL]
Km [5]: 250 µM | Drug metabolism [6]: metabolite_detected | Drug metabolism [7]: metabolite_detected | Papp at 4 h, 50 µM [8]: 33.7 ×10⁻⁶ cm/s | Km [9]: 1200 µM

COC(=O)Nc1nc2ccc(C(=O)c3ccccc3)cc2[nH]1 [MEBENDAZOLE]
Drug metabolism [10]: metabolite_detected | Drug metabolism [11]: metabolite_detected | remaining at 1 h, up to 1 µM [12]: > 90% | Drug metabolism [13]: metabolite_detected | remaining at 1 h, up to 1 µM [14]: > 90% | Drug metabolism [15]: metabolite_detected | CL [16]: < 1.8 µL/min/mg | Drug metabolism [17]: metabolite_detected | Stability [18]: Stable | Drug metabolism [19]: metabolite_detected | Papp at 4 h, 50 µM [8]: 48.5 ×10⁻⁶ cm/s | CL free [20]: 9 µL/min/mg | CL [21]: < 8.8 µL/min/mg | Drug metabolism [22]: metabolite_detected | CL [23]: < 1.8 µL/min/mg | remaining at 1 h [24]: > 90% | Drug metabolism [25]: metabolite_detected

O=C1Cc2cc(CCN3CCN(c4nsc5ccccc45)CC3)c(Cl)cc2N1 [ZIPRASIDONE]
Stability [26]: Stable | remaining at 1 h, up to 1 µM [12]: > 90% | CL free [27]: 89 µL/min/mg | CL free [28]: 23 µL/min/mg | CL free [29]: 28 µL/min/mg | CL free [30]: 15 µL/min/mg | CL free [31]: 28 µL/min/mg | CL [16]: < 1.8 µL/min/mg | Drug metabolism [6]: metabolite_detected | Drug metabolism [7]: metabolite_detected | Papp at 4 h, 50 µM [8]: 67.2 ×10⁻⁶ cm/s | CL free [20]: 118 µL/min/mg | CL free [32]: 15 µL/min/mg | CL free [33]: 29 µL/min/mg
